Activity calls are given as the source filed them. The rule behind the calls is not given here.
Tests used:
[1] = target: Protein cereblon/Phospholipid hydroperoxide glutathione peroxidase GPX4 (Homo sapiens) (UniProt Q96SW2+P36969); test: PROTAC activity at CRBN/GPX4 in human MGC-803 cells assessed as induction of GPX4 degradation at 10 uM incubated for 24 hrs by Western blot analysis; format: cell-based
[2] = target: von Hippel-Lindau disease tumor suppressor/Phospholipid hydroperoxide glutathione peroxidase GPX4 (Homo sapiens) (UniProt P40337+P36969); test: PROTAC activity at VHL/GPX4 in human MGC-803 cells assessed as induction of GPX4 degradation at 10 uM incubated for 24 hrs by Western blot analysis; format: cell-based
HT-1080 [3] = test: Cytotoxicity against human HT-1080 cells assessed as cell growth inhibition incubated for 48 hrs by CCK-8 assay; format: functional, cell-based; settings: HT-1080, 48 h
HT-1080 [4] = test: Induction of ferroptosis in human HT-1080 cells assessed as […] accumulation at 10 uM incubated for 12 hrs by C11-BODIPY staining based flow cytometry analysis; format: functional, cell-based
HT-1080 [5] = test: Induction of ferroptosis in human HT-1080 cells assessed as […] accumulation at 10 uM incubated for 24 hrs by C11-BODIPY staining based flow cytometry analysis; format: functional, cell-based

Chain of von Hippel-Lindau disease tumor suppressor/Phospholipid hydroperoxide glutathione peroxidase GPX4 (Homo sapiens) (P36969 whole entry, looked up): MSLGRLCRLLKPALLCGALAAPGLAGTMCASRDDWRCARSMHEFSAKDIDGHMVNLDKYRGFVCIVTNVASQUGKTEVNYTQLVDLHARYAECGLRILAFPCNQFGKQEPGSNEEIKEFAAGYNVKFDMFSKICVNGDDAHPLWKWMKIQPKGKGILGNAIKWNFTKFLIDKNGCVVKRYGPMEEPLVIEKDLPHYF
Chain of von Hippel-Lindau disease tumor suppressor/Phospholipid hydroperoxide glutathione peroxidase GPX4 (Homo sapiens) (P40337 whole entry, looked up): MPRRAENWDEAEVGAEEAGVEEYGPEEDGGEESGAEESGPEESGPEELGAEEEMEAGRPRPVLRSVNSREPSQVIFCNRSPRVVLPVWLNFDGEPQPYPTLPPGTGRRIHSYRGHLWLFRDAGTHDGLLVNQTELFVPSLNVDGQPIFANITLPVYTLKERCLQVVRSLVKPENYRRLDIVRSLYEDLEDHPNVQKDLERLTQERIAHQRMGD
Chain of Protein cereblon/Phospholipid hydroperoxide glutathione peroxidase GPX4 (Homo sapiens) (P36969 whole entry, looked up): as the sequence (P36969 whole entry, looked up) above
Chain of Protein cereblon/Phospholipid hydroperoxide glutathione peroxidase GPX4 (Homo sapiens) (Q96SW2 whole entry, looked up): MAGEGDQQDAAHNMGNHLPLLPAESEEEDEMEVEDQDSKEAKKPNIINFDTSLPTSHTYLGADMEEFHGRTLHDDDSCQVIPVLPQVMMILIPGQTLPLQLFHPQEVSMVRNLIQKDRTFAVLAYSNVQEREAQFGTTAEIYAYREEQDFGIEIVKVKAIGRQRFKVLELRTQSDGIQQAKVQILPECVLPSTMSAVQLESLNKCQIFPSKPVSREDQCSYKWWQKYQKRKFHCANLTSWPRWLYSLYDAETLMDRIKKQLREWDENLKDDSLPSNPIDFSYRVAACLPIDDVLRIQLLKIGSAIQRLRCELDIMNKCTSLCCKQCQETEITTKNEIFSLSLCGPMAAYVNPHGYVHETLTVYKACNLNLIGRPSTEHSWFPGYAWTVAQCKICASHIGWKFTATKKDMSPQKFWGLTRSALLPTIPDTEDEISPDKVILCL

## O=C(CCOCCNc1cccc2c1C(=O)N(C1CCC(=O)NC1=O)C2=O)NCCOCCOCCC(=O)Nc1ccc(N(C(=O)CCl)C(C(=O)NCCc2ccccc2)c2cccs2)cc1 (centres undefined)
[1]
  Activity: < 10%

## COc1ccc(N(C(=O)CCl)C(C(=O)NCCc2ccccc2)c2ccc(NC(=O)CCOCCNc3cccc4c3C(=O)N(C3CCC(=O)NC3=O)C4=O)cc2)cc1Cl (centres undefined)
[2]
  Activity: 28.7%

## O=C1CCC(N2C(=O)c3cccc(NCCOCCOCCOCCOCCC(=O)N4CCN(CC(=O)Nc5ccc(N(C(=O)CCl)C(C(=O)NCCc6ccccc6)c6cccs6)cc5)CC4)c3C2=O)C(=O)N1 (centres undefined)
[1]
  Activity: 19.9%

## COc1ccc(N(C(=O)CCl)C(C(=O)NCCc2ccccc2)c2ccc(NC(=O)CCOCCOCCOCCNc3cccc4c3C(=O)N(C3CCC(=O)NC3=O)C4=O)cc2)cc1Cl (centres undefined)
[2]
  Activity: < 10%

## Cc1ncsc1-c1ccc([C@H](C)NC(=O)[C@@H]2C[C@@H](O)CN2C(=O)[C@@H](NC(=O)CCCCCCCCCC(=O)Nc2ccc(N(C(=O)CCl)C(C(=O)NCCc3ccccc3)c3cccs3)cc2)C(C)(C)C)cc1 (some centres undefined)
[2]
  Activity: < 10%

## O=C(CCOCCNc1cccc2c1C(=O)N(C1CCC(=O)NC1=O)C2=O)NCCCC(=O)Nc1ccc(N(C(=O)CCl)C(C(=O)NCCc2ccccc2)c2cccs2)cc1 (centres undefined)
[1]
  Activity: 33.8%
HT-1080 [3]
  IC50: 37.7 µM

## O=C1CCC(N2C(=O)c3cccc(NCCOCCOCCOCCC(=O)Nc4ccc(N(C(=O)CCl)C(C(=O)NCCc5ccccc5)c5cccs5)cc4)c3C2=O)C(=O)N1 (centres undefined)
[1]
  Activity: 19.4%

## O=C1CCC(N2C(=O)c3cccc(OCC(=O)N4CCN(CC(=O)Nc5ccc(N(C(=O)CCl)C(C(=O)NCCc6ccccc6)c6cccs6)cc5)CC4)c3C2=O)C(=O)N1 (centres undefined)
[1]
  Activity: < 10%

## C=C(F)C(=O)N(c1ccc(NC(=O)CCOCCNC(=O)CCOCCNc2cccc3c2C(=O)N(C2CCC(=O)NC2=O)C3=O)cc1)C(C(=O)NCCc1ccccc1)c1cccs1 (centres undefined)
[2]
  Activity: < 10%

## O=C(CCOCCOCCNc1cccc2c1C(=O)N(C1CCC(=O)NC1=O)C2=O)NCCOCCC(=O)Nc1ccc(N(C(=O)CCl)C(C(=O)NCCc2ccccc2)c2cccs2)cc1 (centres undefined)
[1]
  Activity: 16.4%

## O=C(CCOCCNc1cccc2c1CN(C1CCC(=O)NC1=O)C2=O)NCCCC(=O)Nc1ccc(N(C(=O)CCl)C(C(=O)NCCc2ccccc2)c2cccs2)cc1 (centres undefined)
[1]
  Activity: < 10%

## O=C(CCOCCNc1cccc2c1C(=O)N(C1CCC(=O)NC1=O)C2=O)NCCCCCC(=O)Nc1ccc(N(C(=O)CCl)C(C(=O)NCCc2ccccc2)c2cccs2)cc1 (centres undefined)
[1]
  Activity: 18%
HT-1080 [3]
  IC50: 31.8 µM

## Cc1ncsc1-c1ccc([C@H](C)NC(=O)[C@@H]2C[C@@H](O)CN2C(=O)[C@@H](NC(=O)CCCCC(=O)N2CCN(CC(=O)Nc3ccc(N(C(=O)CCl)C(C(=O)NCCc4ccccc4)c4cccs4)cc3)CC2)C(C)(C)C)cc1 (some centres undefined)
[2]
  Activity: < 10%

## O=C(CCOCCNc1cccc2c1C(=O)N(C1CCC(=O)NC1=O)C2=O)NCCOCCC(=O)Nc1ccc(N(C(=O)CCl)C(C(=O)NCCc2ccccc2)c2cccs2)cc1 (centres undefined)
[1]
  Activity: 30.1%
HT-1080 [3]
  IC50: 29.2 µM

## Cc1ncsc1-c1ccc([C@H](C)NC(=O)[C@@H]2C[C@@H](O)CN2C(=O)[C@@H](NC(=O)CCCCCCCC(=O)Nc2ccc(N(C(=O)CCl)C(C(=O)NCCc3ccccc3)c3cccs3)cc2)C(C)(C)C)cc1 (some centres undefined)
[2]
  Activity: 21%

## COc1ccc(N(C(=O)CCl)C(C(=O)NCCc2ccccc2)c2ccc(NC(=O)CCOCCOCCNc3cccc4c3C(=O)N(C3CCC(=O)NC3=O)C4=O)cc2)cc1Cl (centres undefined)
[2]
  Activity: < 10%

## O=C(CCOCCNc1cccc2c1C(=O)N(C1CCC(=O)NC1=O)C2=O)NCCCCCCC(=O)Nc1ccc(N(C(=O)CCl)C(C(=O)NCCc2ccccc2)c2cccs2)cc1 (centres undefined)
[1]
  Activity: < 10%

## O=C(Cn1cc(COc2cccc3c2C(=O)N(C2CCC(=O)NC2=O)C3=O)nn1)NCCCCC(=O)Nc1ccc(N(C(=O)CCl)C(C(=O)NCCc2ccccc2)c2cccs2)cc1 (centres undefined)
[2]
  Activity: < 10%

## O=C1CCC(N2C(=O)c3cccc(NCCOCCOCCC(=O)N4CCN(CC(=O)Nc5ccc(N(C(=O)CCl)C(C(=O)NCCc6ccccc6)c6cccs6)cc5)CC4)c3C2=O)C(=O)N1 (centres undefined)
[1]
  Activity: 18.2%

## O=C(CCOCCNc1cccc2c1C(=O)N(C1CCC(=O)NC1=O)C2=O)NCCC(=O)Nc1ccc(N(C(=O)CCl)C(C(=O)NCCc2ccccc2)c2cccs2)cc1 (centres undefined)
[1]
  Activity: < 10%

## O=C(CCOCCNc1cccc2c1CN(C1CCC(=O)NC1=O)C2=O)NCCC(=O)Nc1ccc(N(C(=O)CCl)C(C(=O)NCCc2ccccc2)c2cccs2)cc1 (centres undefined)
[1]
  Activity: < 10%

## O=C1CCC(N2C(=O)c3cccc(NCCOCCOCCOCCOCCC(=O)Nc4ccc(N(C(=O)CCl)C(C(=O)NCCc5ccccc5)c5cccs5)cc4)c3C2=O)C(=O)N1 (centres undefined)
[1]
  Activity: 14.5%

## Cc1ncsc1-c1ccc([C@H](C)NC(=O)[C@@H]2C[C@@H](O)CN2C(=O)[C@@H](NC(=O)CCCCCCCCC(=O)Nc2ccc(N(C(=O)CCl)C(C(=O)NCCc3ccccc3)c3cccs3)cc2)C(C)(C)C)cc1 (some centres undefined)
[2]
  Activity: 28.6%

## O=C1CCC(N2C(=O)c3cccc(NCCOCCOCCOCCC(=O)N4CCN(CC(=O)Nc5ccc(N(C(=O)CCl)C(C(=O)NCCc6ccccc6)c6cccs6)cc5)CC4)c3C2=O)C(=O)N1 (centres undefined)
[1]
  Activity: < 10%

## O=C(CCOCCNc1cccc2c1C(=O)N(C1CCC(=O)NC1=O)C2=O)NCCCCC(=O)Nc1ccc(N(C(=O)CCl)C(C(=O)NCCc2ccccc2)c2cccs2)cc1 (centres undefined)
[1]
  Activity: < 10%

## O=C(CCOCCNc1cccc2c1C(=O)N(C1CCC(=O)NC1=O)C2=O)NC(=O)Nc1ccc(N(C(=O)CCl)C(C(=O)NCCc2ccccc2)c2cccs2)cc1 (centres undefined)
[1]
  Activity: < 10%

## Cc1ncsc1-c1ccc([C@H](C)NC(=O)[C@@H]2C[C@@H](O)CN2C(=O)[C@@H](NC(=O)CCCCC(=O)Nc2ccc(N(C(=O)CCl)C(C(=O)NCCc3ccccc3)c3cccs3)cc2)C(C)(C)C)cc1 (some centres undefined)
[2]
  Activity: < 10%

## Cc1ncsc1-c1ccc([C@H](C)NC(=O)[C@@H]2C[C@@H](O)CN2C(=O)[C@@H](NC(=O)CCCCCCC(=O)Nc2ccc(N(C(=O)CCl)C(C(=O)NCCc3ccccc3)c3cccs3)cc2)C(C)(C)C)cc1 (some centres undefined)
[2]
  Activity: 45%
HT-1080 [4]
  Activity: inactive
HT-1080 [5]
  Activity: Active

## COc1ccc(N(C(=O)CCl)C(C(=O)NCCc2ccccc2)c2ccc(NC(=O)CCOCCNC(=O)CCOCCNc3cccc4c3C(=O)N(C3CCC(=O)NC3=O)C4=O)cc2)cc1Cl (centres undefined)
[2]
  Activity: 39.2%
HT-1080 [3]
  IC50: 13 µM

## O=C1CCC(N2C(=O)c3cccc(NCCOCCC(=O)N4CCN(CC(=O)Nc5ccc(N(C(=O)CCl)C(C(=O)NCCc6ccccc6)c6cccs6)cc5)CC4)c3C2=O)C(=O)N1 (centres undefined)
[1]
  Activity: 33%
HT-1080 [3]
  IC50: 11.7 µM
HT-1080 [4]
  Activity: Active
HT-1080 [5]
  Activity: Active

## Cc1ncsc1-c1ccc([C@@H](C)NC(=O)[C@@H]2C[C@@H](O)CN2C(=O)[C@@H](NC(=O)CCCCCC(=O)Nc2ccc(N(C(=O)CCl)C(C(=O)NCCc3ccccc3)c3cccs3)cc2)C(C)(C)C)cc1 (some centres undefined)
[2]
  Activity: < 10%

## O=C1CCC(N2C(=O)c3cccc(OCC(=O)Nc4ccc(N(C(=O)CCl)C(C(=O)NCCc5ccccc5)c5cccs5)cc4)c3C2=O)C(=O)N1 (centres undefined)
[1]
  Activity: < 10%
HT-1080 [3]
  IC50: 11.9 µM
HT-1080 [4]
  Activity: Active
HT-1080 [5]
  Activity: Active

Reference: ChEMBL document CHEMBL5325446, “Design and synthesis of proteolysis-targeting chimeras (PROTACs) as degraders of glutathione peroxidase 4” (Bioorg Med Chem, 2023)
